Experimental findings from patent EP0519427A2, “N-substituted-3-iodopropiolamide, production and use thereof” (priority 1991, dated 1992) are described below.

What all share (assay): Antibacterial and antifungal activity, paper disc method
What all share (type): cell-based

Test [1] relates to Escherichia coli IFO-3301. The settings on record: paper disc d=8 mm dipped in 1,000 µg/ml solution, TSA medium; for zone of inhibition at 1000 µg/mL: Escherichia coli, IFO3301, read-out: diameter of the growth inhibition circle, Esc.(IFO-3301). The protocol:
(§1) Antibacterial and antifungal activity tests for various bacteria and fungi were conducted. The tests were carried out by the conventional paper disc method. That is, a paper disc (d=8 mm) was dipped in aqueous or methanol solution of the compound of the present invention (concentration : 1,000 µg/ml), then dried and used.
(§2) As bacteria to be tested, • ① Staphylococcus aureus IFO-12732 [hereinafter abbreviated to Sta.] • ② Bacillus subtilis IFO-13719 [Bac.] • ③ Escherichia coli IFO-3301 [Esc.] were used. As yeast to be tested, • ④ Saccharomyces cerevisiae IFO-0210 [Sac.] • ⑤ Candida albicans IFO-0583 [Can.] were used. As fungi to be tested, • ⑥ Aspergillus niger IFO-4407 [Asp.] • ⑦ Penicillium citrinum IFO-7784 [Pen.] • ⑧ Tyromyces palustris IFO-30339 [Tyr.] • ⑨ Coriolus versicolor IFO-30340 [Cor.] were used. Among the above fungi, Tyr. and Cor. are wood rot fungi.
(§3) As the test media, agar media shown below were used. That is, TSA (Trypticase Soy Agar) medium was used for Sta., Bac. and Esc.; YNB (Yeast Nitrogen Base) agar medium was used for Sac. and Can.; SDA (Sabouraud Dextrose Agar) medium was used for Asp. and Pen.; and PDA (Potato Dextrose Agar) medium was used for Try. and Cor.
(§4) The determination of antibacterial and antifungal effectiveness was carried out by measuring the diameter of the growth inhibition circle generated on the circumference of the paper disc. The indication of effectiveness is given as follows: -: no growth inhibition circle was observed. +: diameter of the growth inhibition circle was 9 - 20 mm ++: diameter of the growth inhibition circle was 21 - 40 mm +++: diameter of the growth inhibition circle was 41 mm or more

In test [2] the test system is Staphylococcus aureus IFO-12732. As to conditions: IFO12732, paper disc d=8 mm dipped in 1,000 µg/ml solution, TSA medium, read-out: diameter of the growth inhibition circle, Sta.(IFO-12732). How it is done: as §1, §2, §3, §4
The test system of test [3] is Candida albicans IFO-0583. As to conditions: IFO0583, paper disc d=8 mm dipped in 1,000 µg/ml solution, YNB agar medium, read-out: diameter of the growth inhibition circle, Can.(IFO-0583). The protocol: as §1, §2, §3, §4
Test [4] concerns Saccharomyces cerevisiae IFO-0210. The settings on record: IFO0210, paper disc d=8 mm dipped in 1,000 µg/ml solution, YNB agar medium, read-out: diameter of the growth inhibition circle, Sac.(IFO-0210). How it is done: as §1, §2, §3, §4
Test [5] has as its system Coriolus versicolor IFO-30340. The settings on record: Trametes versicolor, IFO30340; paper disc d=8 mm dipped in 1,000 µg/ml solution; PDA medium; read-out: diameter of the growth inhibition circle, Cor.(IFO-30340). The protocol:
as §1, §2, §3, §4

Test [6] concerns Tyromyces palustris IFO-30339. The settings on record: paper disc d=8 mm dipped in 1,000 µg/ml solution; PDA medium; read-out: diameter of the growth inhibition circle, Tyr.(IFO-30339). How it is done: as §1, §2, §3, §4
In test [7] the test system is Bacillus subtilis IFO-13719. As to conditions: Bacillus subtilis, IFO13719; paper disc d=8 mm dipped in 1,000 µg/ml solution; TSA medium; read-out: diameter of the growth inhibition circle, Bac.(IFO-13719). How it is done: as §1, §2, §3, §4
Test [8] concerns Penicillium citrinum IFO-7784. As to conditions: IFO7784, paper disc d=8 mm dipped in 1,000 µg/ml solution, SDA medium, read-out: diameter of the growth inhibition circle, Pen.(IFO-7784). The protocol: as §1, §2, §3, §4
Test [9] deals with Aspergillus niger IFO-4407. The settings on record: IFO4407, paper disc d=8 mm dipped in 1,000 µg/ml solution, SDA medium, read-out: diameter of the growth inhibition circle, Asp.(IFO-4407). The protocol: as §1, §2, §3, §4

With `O=C(C#CI)Nc1cccc(Cl)c1` [Example 3, N-(3-Chlorophenyl)-3-iodopropiolamide], the zone of inhibition at 1000 µg/mL in test [1] was 9 to 20 mm; in test [2], 21 to 40 mm; in [3] it was 21 to 40 mm; in test [4], 21 to 40 mm; in [5] it was above 41 mm; in test [6], above 41 mm. For the same compound, the zone of inhibition at 1000 µg/mL was 21 to 40 mm in test [7], above 41 mm in test [8] and 21 to 40 mm in [9].

As for `O=C(C#CI)NCCc1ccccc1` [Example 16, N-(2-Phenylethyl)-3-iodopropiolamide], the zone of inhibition at 1000 µg/mL in test [1] is 9 to 20 mm; in test [2], 21 to 40 mm; in [3], 21 to 40 mm; in [4], above 41 mm; in [5], above 41 mm; in test [6] it was above 41 mm. Moreover, the zone of inhibition at 1000 µg/mL in test [7] is 21 to 40 mm; in test [8], above 41 mm; in [9], 21 to 40 mm.

Turning to `O=C(C#CI)Nc1cccc(F)c1` [Example 17, N-(3-Fluorophenyl)-3-iodopropiolamide], the zone of inhibition at 1000 µg/mL in test [1] is 9 to 20 mm; in [2] it was 21 to 40 mm; in test [3], 21 to 40 mm; in test [4] it was 21 to 40 mm; in test [5] it was above 41 mm; in test [6] it was above 41 mm. Besides, the zone of inhibition at 1000 µg/mL is 21 to 40 mm in [7], above 41 mm in test [8] and 21 to 40 mm in [9].

As to `CCCCN(CCCC)C(=O)C#CI` [Example 18, N,N-Di(n-butyl)-3-iodopropiolamide], the “diameter of the growth inhibition circle, Esc.(IFO-3301)” value in [1] is on record as “-”. Also, the zone of inhibition at 1000 µg/mL in test [2] is 21 to 40 mm; in test [3], 21 to 40 mm; in [4] it was 21 to 40 mm; in test [5], above 41 mm; in [6], above 41 mm; in [7], 9 to 20 mm. In addition, the zone of inhibition at 1000 µg/mL in test [8] is above 41 mm; in test [9], 21 to 40 mm.

Regarding `O=C(C#CI)N1CCCCC1` [Example 19, 1-(3-Iodopropioloyl)piperidine], the zone of inhibition at 1000 µg/mL was 9 to 20 mm in [1]; 21 to 40 mm in test [2]; 21 to 40 mm in test [3]; 21 to 40 mm in [4]; above 41 mm in test [5]; above 41 mm in test [6]. Besides, the zone of inhibition at 1000 µg/mL was 21 to 40 mm in test [7], above 41 mm in [8] and 21 to 40 mm in test [9].

`CC1COCC(C)N1C(=O)C#CI` (stereo not drawn) [Example 20, 4-(3-Iodopropioloyl)-3,5-dimethylmorpholine]: the “diameter of the growth inhibition circle, Esc.(IFO-3301)” value in [1] is “-”. The zone of inhibition at 1000 µg/mL in test [2] was 21 to 40 mm; in test [3], 9 to 20 mm; in test [4], 21 to 40 mm; in [5], above 41 mm; in [6] it was above 41 mm; in test [7], 9 to 20 mm. The zone of inhibition at 1000 µg/mL in [8] was above 41 mm; in test [9] it was 21 to 40 mm.

Regarding `O=C(C#CI)N1CCN(c2ccccc2)CC1` [Example 21, 1-(3-Iodopropioloyl)-4-phenylpiperazine], the “diameter of the growth inhibition circle, Esc.(IFO-3301)” value in test [1] is “-”. Besides, the zone of inhibition at 1000 µg/mL in [2] was 21 to 40 mm; in [3], 21 to 40 mm; in test [4], 21 to 40 mm; in test [5], above 41 mm; in [6] it was above 41 mm; in [7], 9 to 20 mm. Moreover, the zone of inhibition at 1000 µg/mL was above 41 mm in test [8] and 21 to 40 mm in test [9].
